One may read the MIC as the smallest concentration in the dilution series that meets the test's criterion for growth inhibition.

Experimental findings from ChEMBL document CHEMBL3046216, “Synthesis, biological evaluation and QSAR study of a series of substituted quinazolines as antimicrobial agents” (2013) are described below.

Converted amounts (≈) assume the structure as drawn. The source made the active and inactive calls.

Type in all cases: functional
In one assay the test system is Bacillus subtilis. In words: Antimicrobial activity against Bacillus subtilis ATCC 6633 assessed as growth inhibition after 24 hr by NCCLS broth dilution method. (In general: Broth dilution looks for growth in wells or tubes with falling amounts of substance.)
Another assay deals with Staphylococcus aureus. In words: Antimicrobial activity against Staphylococcus aureus ATCC 25923 assessed as growth inhibition after 24 hr by NCCLS broth dilution method.
A further assay deals with Pseudomonas aeruginosa. Nature of the assay: Antimicrobial activity against Pseudomonas aeruginosa ATCC 27853 assessed as growth inhibition after 24 hr by NCCLS broth dilution method.
The next assay concerns Escherichia coli. In words: Antimicrobial activity against Escherichia coli ATCC 25922 assessed as growth inhibition after 24 hr by NCCLS broth dilution method.

As to `COc1ccccc1NC(=S)Nc1cc2c(Sc3nnc(-c4cccnc4)o3)ncnc2cc1N1CCN(C)CC1`, the MIC result in the assay with Bacillus subtilis, in the assay on Staphylococcus aureus, in the assay on Pseudomonas aeruginosa and in the assay on Escherichia coli was “inactive” in each case. Further, the MIC was 25 µg/mL (≈ 42.7 µM) in the assay with Bacillus subtilis (ATCC 6633, 24 h); 12.5 µg/mL (≈ 21.3 µM) with Staphylococcus aureus (ATCC 25923, 24 h); 50 µg/mL (≈ 85.4 µM) in the assay on Pseudomonas aeruginosa (ATCC 27853, 24 h); 25 µg/mL (≈ 42.7 µM) with Escherichia coli (ATCC 25922, 24 h).

For `Cc1cccc(NC(=S)Nc2cc3c(Sc4nnc(-c5cccnc5)o4)ncnc3cc2N2CCN(C)CC2)c1`, the MIC entry in the assay with Bacillus subtilis, with Staphylococcus aureus, in the assay with Pseudomonas aeruginosa and in the assay with Escherichia coli was “inactive” throughout. The minimal inhibitory concentration (MIC) worked out at 25 µg/mL (≈ 43.9 µM) in the assay with Bacillus subtilis (ATCC 6633, 24 h); 50 µg/mL (≈ 87.8 µM) with Staphylococcus aureus (ATCC 25923, 24 h); 100 µg/mL (≈ 176 µM) with Pseudomonas aeruginosa (ATCC 27853, 24 h); 25 µg/mL (≈ 43.9 µM) in the assay with Escherichia coli (ATCC 25922, 24 h).

As to `Cc1ccc(NC(=O)Nc2cc3c(Sc4nnc(-c5cccnc5)o4)ncnc3cc2N2CCN(C)CC2)cc1`, the MIC result in the assay on Bacillus subtilis, in the assay with Staphylococcus aureus, in the assay with Pseudomonas aeruginosa and in the assay on Escherichia coli was “inactive” throughout. Moreover, the MIC with Bacillus subtilis (ATCC 6633, 24 h) was found to be 12.5 µg/mL (≈ 22.6 µM); in the assay on Staphylococcus aureus (ATCC 25923, 24 h), 25 µg/mL (≈ 45.2 µM); in the assay with Pseudomonas aeruginosa (ATCC 27853, 24 h) it was 50 µg/mL (≈ 90.3 µM); with Escherichia coli (ATCC 25922, 24 h), 50 µg/mL (≈ 90.3 µM).

Regarding `O=C(Nc1ccc(Cl)cc1)Nc1ccc2ncnc(Sc3nnc(-c4cccnc4)o3)c2c1`, the MIC entry with Bacillus subtilis, in the assay with Staphylococcus aureus, in the assay with Pseudomonas aeruginosa and with Escherichia coli was “inactive” throughout. The minimal inhibitory concentration (MIC) amounted to 12.5 µg/mL (≈ 26.3 µM) in the assay with Bacillus subtilis (ATCC 6633, 24 h); 6.25 µg/mL (≈ 13.1 µM) with Staphylococcus aureus (ATCC 25923, 24 h); 25 µg/mL (≈ 52.5 µM) with Pseudomonas aeruginosa (ATCC 27853, 24 h); 75 µg/mL (≈ 158 µM) in the assay with Escherichia coli (ATCC 25922, 24 h).

Consider `CC1COc2c(N3CCN(C)CC3)c(F)cc3c(=O)c(C(=O)O)cn1c23` (configuration not stated) [OFLOXACIN], for which the MIC entry in the assay on Bacillus subtilis, with Staphylococcus aureus, in the assay on Pseudomonas aeruginosa and with Escherichia coli was “inactive” throughout. The minimum inhibitory concentration (MIC) was 0.125 µg/mL (≈ 0.346 µM) in the assay with Bacillus subtilis (ATCC 6633, 24 h); 0.25 µg/mL (≈ 0.692 µM) in the assay on Staphylococcus aureus (ATCC 25923, 24 h); 10 µg/mL (≈ 27.7 µM) with Pseudomonas aeruginosa (ATCC 27853, 24 h); 0.125 µg/mL (≈ 0.346 µM) in the assay on Escherichia coli (ATCC 25922, 24 h).

On to `S=C(Nc1cccc(Cl)c1)Nc1ccc2ncnc(Sc3nnc(-c4cccnc4)o3)c2c1`, for which the MIC result in the assay with Bacillus subtilis, in the assay on Staphylococcus aureus, in the assay with Pseudomonas aeruginosa and in the assay on Escherichia coli was “inactive” each time. In addition, the MIC with Bacillus subtilis (ATCC 6633, 24 h) worked out at 25 µg/mL (≈ 50.8 µM); with Staphylococcus aureus (ATCC 25923, 24 h) it was 6.25 µg/mL (≈ 12.7 µM); in the assay on Pseudomonas aeruginosa (ATCC 27853, 24 h), 75 µg/mL (≈ 152 µM); in the assay with Escherichia coli (ATCC 25922, 24 h), 50 µg/mL (≈ 102 µM).

For the compound `O=C(Nc1ccccc1)Nc1ccc2ncnc(Sc3nnc(-c4cccnc4)o3)c2c1`, the MIC result with Bacillus subtilis, in the assay with Staphylococcus aureus, in the assay with Pseudomonas aeruginosa and in the assay with Escherichia coli was “inactive” each time. Further, the MIC with Bacillus subtilis (ATCC 6633, 24 h) was 25 µg/mL (≈ 56.6 µM); in the assay with Staphylococcus aureus (ATCC 25923, 24 h), 12.5 µg/mL (≈ 28.3 µM); in the assay with Pseudomonas aeruginosa (ATCC 27853, 24 h), 50 µg/mL (≈ 113 µM); in the assay on Escherichia coli (ATCC 25922, 24 h), 25 µg/mL (≈ 56.6 µM).

Turning to `COc1ccccc1NC(=S)Nc1ccc2ncnc(Sc3nnc(-c4cccnc4)o3)c2c1`, the MIC entry with Bacillus subtilis, in the assay on Staphylococcus aureus, in the assay with Pseudomonas aeruginosa and in the assay on Escherichia coli was “inactive” in each case. The MIC in the assay on Bacillus subtilis (ATCC 6633, 24 h) amounted to 25 µg/mL (≈ 51.3 µM); in the assay on Staphylococcus aureus (ATCC 25923, 24 h), 12.5 µg/mL (≈ 25.6 µM); with Pseudomonas aeruginosa (ATCC 27853, 24 h), 50 µg/mL (≈ 103 µM); with Escherichia coli (ATCC 25922, 24 h) it was 25 µg/mL (≈ 51.3 µM).

`CC1(C)S[C@@H]2[C@H](NC(=O)Cc3ccccc3)C(=O)N2[C@H]1C(=O)O` [PENICILLIN G]: the MIC result in the assay with Bacillus subtilis, in the assay with Staphylococcus aureus, in the assay with Pseudomonas aeruginosa and in the assay with Escherichia coli was “inactive” in each case. In addition, the minimal inhibitory concentration (MIC) with Bacillus subtilis (ATCC 6633, 24 h) was found to be 1.56 µg/mL (≈ 4.67 µM); in the assay with Staphylococcus aureus (ATCC 25923, 24 h) it was 1.56 µg/mL (≈ 4.67 µM); with Pseudomonas aeruginosa (ATCC 27853, 24 h) it was 12.5 µg/mL (≈ 37.4 µM); in the assay with Escherichia coli (ATCC 25922, 24 h), 6.25 µg/mL (≈ 18.7 µM).
